Consider 33 compounds from patent publication US10730863B2, “Bridged bicyclic compounds as farnesoid X receptor modulators” (BRISTOL-MYERS SQUIBB COMPANY, priority 2017, dated 2020).

The target in the experiment is FXR (Homo sapiens (Human), UniProt Q96RI1). Kind of experiment: FXR EC50 (FXR agonist activity reported with each example). Type of experiment: cell-based.
Sequence of FXR (Q96RI1 262-486): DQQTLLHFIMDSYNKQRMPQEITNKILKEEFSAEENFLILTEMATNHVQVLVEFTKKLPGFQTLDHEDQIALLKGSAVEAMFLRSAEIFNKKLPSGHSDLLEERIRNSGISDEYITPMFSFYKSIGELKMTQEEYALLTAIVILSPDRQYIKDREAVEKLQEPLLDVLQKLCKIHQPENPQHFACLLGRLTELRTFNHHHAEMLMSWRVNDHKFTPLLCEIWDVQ
Consider `COc1cc(OCC23CCC(OCc4c(-c5c(Cl)cncc5Cl)noc4C4CC4)(CC2)CC3)ccc1C(=O)O` [Example 358], for which it took 52 nM to reach a half-maximal effect (EC50).
`CS(=O)(=O)NC(=O)c1ccc(-c2noc(C34CCC(OCc5c(-c6c(Cl)cccc6Cl)noc5C5CC5)(CC3)CC4)n2)cc1` [Example 3, 4-(5-(4-((5-cyclopropyl-3-(2,6-dichlorophenyl)isoxazol-4-yl)methoxy)bicyclo[2.2.2]octan-1-yl)-1,2,4-oxadiazol-3-yl)-N-(methylsulfonyl)benzamide] came in with an EC50 of 890 nM.
The value for `O=C(O)c1ccc(-c2noc(C34CCC(CNc5c(-c6c(Cl)cccc6Cl)noc5C5CC5)(CC3)CC4)n2)cc1` [Example 167] was 530 nM.
As for `Cn1cc(C(=O)O)c2ccc(OCC34CCC(OCc5c(-c6c(Cl)cccc6Cl)noc5C5CC5)(CC3)CC4)cc21` [Example 90, 6-((4-((5-cyclopropyl-3-(2,6-dichlorophenyl)isoxazol-4-yl)methoxy)bicyclo[2.2.2]octan-1-yl)methoxy)-1-methyl-1H-indole-3-carboxylic acid], the figure is 11 nM; as for `COc1cc(OCC23CCC(OCc4c(-c5c(Cl)cncc5Cl)noc4C4CC4)(CC2)CC3)cc(C(=O)O)c1` [Example 321, 3-((4-((5-cyclopropyl-3-(3,5-dichloropyridin-4-yl)isoxazol-4-yl)methoxy)bicyclo[2.2.2]octan-1-yl)methoxy)-5-methoxybenzoic acid], 7 nM; as for `COc1cc(C(=O)O)nc2ccc(C#CC34CCC(OCc5c(-c6c(Cl)cncc6Cl)noc5C5CC5)(CC3)CC4)cc12` [Example 375], 57 nM.
As for `Cc1cc(OCC23CCC(/C=C/c4c(-c5c(Cl)cncc5Cl)noc4C4CC4)(CC2)CC3)c2cc(C(=O)O)cc(F)c2n1` [Example 447, (E)-4-((4-(2-(5-cyclopropyl-3-(3,5-dichloropyridin-4-yl)isoxazol-4-yl)vinyl)bicyclo[2.2.2]octan-1-yl)methoxy)-8-fluoro-2-methylquinoline-6-carboxylic acid], the figure is 2400 nM; as for `O=C(O)c1cc(F)c2nc(OCC34CCC(OCc5c(-c6c(Cl)cccc6Cl)noc5C5CC5)(CC3)CC4)sc2c1` [Example 83, 2-((4-((5-cyclopropyl-3-(2,6-dichlorophenyl)isoxazol-4-yl)methoxy)bicyclo[2.2.2]octan-1-yl)methoxy)-4-fluorobenzo[d]thiazole-6-carboxylic acid], 18 nM.
The compound `COc1ccc(-c2nc(C34CCC(OCc5c(-c6c(Cl)cncc6Cl)noc5C5CC5)(CC3)CC4)co2)cc1C(=O)O` [Example 252, 5-(4-(4-((5-cyclopropyl-3-(3,5-dichloropyridin-4-yl)isoxazol-4-yl)methoxy)bicyclo[2.2.2]octan-1-yl)oxazol-2-yl)-2-methoxybenzoic acid] had an EC50 of 86 nM.
Turning to `O=C(O)c1ccc2nc(C34CCC(/C=C\c5c(-c6c(Cl)cccc6Cl)noc5C5CC5)(CC3)CC4)sc2c1` [Example 181, (Z)-2-(4-(2-(5-cyclopropyl-3-(2,6-dichlorophenyl)isoxazol-4-yl)vinyl)bicyclo[2.2.2]octan-1-yl)benzo[d]thiazole-6-carboxylic acid], the EC50 turned out to be 780 nM.
As for `O=C(O)c1ccc2c(c1)CCN(C(=O)C13CCC(OCc4c(-c5c(Cl)cccc5Cl)noc4C4CC4)(CC1)CC3)C2` [Example 140, 2-(4-((5-cyclopropyl-3-(2,6-dichlorophenyl)isoxazol-4-yl)methoxy)bicyclo[2.2.2]octane-1-carbonyl)-1,2,3,4-tetrahydroisoquinoline-6-carboxylic acid], the figure is 1700 nM.
As for `O=C(O)c1cnc(OCC23CCC(OCc4c(-c5c(Cl)cncc5Cl)noc4C4CC4)(CC2)CC3)cc1C(F)(F)F` [Example 283], the figure is 15 nM; as for “3-((4-((5-cyclopropyl-3-(2- trifluoromethoxy)phenyl)isoxazol-4- yl)methoxy)bicyclo[2.2.2]octan-1- yl)methoxy)nicotinic acid [Example 78]”, 1400 nM.
`O=C(O)c1cc(C(F)(F)F)cc2nc(C34CCC(OCc5c(C(C6CC6)C6CC6)noc5C5CC5)(CC3)CC4)ccc12` [Example 423, 2-(4-((5-cyclopropyl-3-(dicyclopropylmethyl)isoxazol-4-yl)methoxy)bicyclo[2.2.2]octan-1-yl)-7-(trifluoromethyl)quinoline-5-carboxylic acid] yielded an EC50 of 67 nM.
As for `O=C(O)c1cc(-c2noc(C34CCC(/C=C/c5c(-c6c(Cl)cncc6Cl)noc5C5CC5)(CC3)CC4)n2)ccc1OC(F)F` [Example 446, (E)-5-(5-(4-(2-(5-cyclopropyl-3-(3,5-dichloropyridin-4-yl)isoxazol-4-yl)vinyl)bicyclo[2.2.2]octan-1-yl)-1,2,4-oxadiazol-3-yl)-2-(difluoromethoxy)benzoic acid], the figure is 350 nM; as for `COc1ccc(-c2noc(C34CCC(/C=C/c5c(-c6c(Cl)cncc6Cl)noc5C5CC5)(CC3)CC4)n2)cc1C(=O)NS(=O)(=O)C1CC1` [Example 439, (E)-5-(5-(4-(2-(5-cyclopropyl-3-(3,5-dichloropyridin-4-yl)isoxazol-4-yl)vinyl)bicyclo[2.2.2]octan-1-yl)-1,2,4-oxadiazol-3-yl)-N-(cyclopropylsulfonyl)-2-methoxybenzamide], 280 nM; as for `COC(=O)c1cccc(-c2noc(C34CCC(OCc5c(-c6ccccc6C(F)(F)F)noc5C5CC5)(CC3)CC4)n2)c1` [Example 36], 3500 nM.
Compound `O=C(O)c1cccc2nc(OCC34CCC(OCc5c(-c6c(Cl)cncc6Cl)noc5C5CC5)(CC3)CC4)ccc12` [Example 343] yielded an EC50 of 75 nM.
As for `O=C(O)c1ccc(OCC23CCC(OCc4c(-c5ccccc5C(F)(F)F)noc4C4CC4)(CC2)CC3)c2ncccc12` [Example 305], the figure is 104 nM.
As for `O=C(O)c1cc(OCC2CC2)c2cc(OCC34CCC(OCc5c(-c6c(Cl)cncc6Cl)noc5C5CC5)(CC3)CC4)c(F)cc2n1` [Example 314, 6-((4-((5-cyclopropyl-3-(3,5-dichloropyridin-4-yl)isoxazol-4-yl)methoxy)bicyclo[2.2.2]octan-1-yl)methoxy)-4-(cyclopropylmethoxy)-7-fluoroquinoline-2-carboxylic acid], the figure is 67 nM; as for `CN(C)c1cc(C(=O)O)nc2ccc(OCC34CCC(OCc5c(-c6c(Cl)cncc6Cl)noc5C5CC5)(CC3)CC4)cc12` [Example 330], 1500 nM; as for `O=C(O)c1cc(F)c2nc(C#CC34CCC(OCc5c(-c6c(Cl)cncc6Cl)noc5C5CC5)(CC3)CC4)sc2c1` [Example 133, 2-((4-((5-cyclopropyl-3-(3,5-dichloropyridin-4-yl)isoxazol-4-yl)methoxy)bicyclo[2.2.2]octan-1-yl)ethynyl)-4-fluorobenzo[d]thiazole-6-carboxylic acid], 180 nM.
`O=C(O)c1coc(C23CCC(COCc4c(-c5c(Cl)cccc5Cl)noc4C4CC4)(CC2)CC3)n1` [Example 177, 2-(4-(((5-cyclopropyl-3-(2,6-dichlorophenyl)isoxazol-4-yl)methoxy)methyl)bicyclo[2.2.2]octan-1-yl)oxazole-4-carboxylic acid] showed an EC50 of 1800 nM.
The value for `O=C(O)c1cnc2ccc(OCC34CCC(OCc5c(-c6c(Cl)cncc6Cl)noc5C5CC5)(CC3)CC4)nn12` [Example 466, 6-((4-((5-cyclopropyl-3-(3,5-dichloropyridin-4-yl)isoxazol-4-yl)methoxy)bicyclo[2.2.2]octan-1-yl)methoxy)imidazo[1,2-b]pyridazine-3-carboxylic acid] was 390 nM; that for `O=C(O)c1ccc2nc(C34CCC(OCc5c(-c6ccccc6OC(F)(F)F)noc5C5CC5)(CC3)CC4)sc2c1` [Example 38] was 360 nM.
As for `O=C(O)c1cccc(-c2nc(C34CCC(OCc5c(-c6ccccc6OC(F)(F)F)noc5C5CC5)(CC3)CC4)no2)c1` [Example 55], the figure is 250 nM.
As for `O=C(O)c1cccc2nc(C34CCC(C=Cc5c(-c6c(Cl)cccc6Cl)noc5C5CC5)(CC3)CC4)sc12` [Example 184], the figure is 20 nM; as for `O=C(O)c1ccc(-c2noc(C34CCC(/C=C\c5c(-c6c(Cl)cccc6Cl)noc5C5CC5)(CC3)CC4)n2)cc1` [Example 164], 1600 nM.
For the compound `Clc1cccc(Cl)c1-c1noc(C2CC2)c1COC12CCC(c3nc(-c4nn[nH]n4)no3)(CC1)CC2` [Example 267, 5-(4-((5-cyclopropyl-3-(2,6-dichlorophenyl)isoxazol-4-yl)methoxy)bicyclo[2.2.2]octan-1-yl)-3-(2H-tetrazol-5-yl)-1,2,4-oxadiazole], the concentration for a half-maximal effect (EC50) worked out at 4400 nM.
In turn, `COc1ccc(-c2noc(C34CCC(OCc5c(-c6c(Cl)cncc6Cl)noc5C5CC5)(CC3)CC4)n2)cc1C(=O)O` [Example 69, 5-(5-(4-((5-Cyclopropyl-3-(3,5-dichloropyridin-4-yl)isoxazol-4-yl)methoxy)bicyclo[2.2.2]octan-1-yl)-1,2,4-oxadiazol-3-yl)-2-methoxybenzoic acid] returned an EC50 of 56 nM.
As for `O=C(O)c1ncc(OCC23CCC(OCc4c(-c5c(Cl)cncc5Cl)noc4C4CC4)(CC2)CC3)cc1OCC(F)(F)F` [Example 300, 5-((4-((5-cyclopropyl-3-(3,5-dichloropyridin-4-yl)isoxazol-4-yl)methoxy)bicyclo[2.2.2]octan-1-yl)methoxy)-3-(2,2,2-trifluoroethoxy)picolinic acid], the figure is 57 nM.
`O=C(O)c1cccc(-c2noc(C34CCC(OCc5c(-c6ccccc6OC(F)(F)F)noc5C5CC5)(CC3)CC4)n2)c1` [Example 1, 3-(5-(4-((5-cyclopropyl-3-(2-(trifluoromethoxy)phenyl)isoxazol-4-yl)methoxy)bicyclo[2.2.2]octan-1-yl)-1,2,4-oxadiazol-3-yl)benzoic acid] came in with a concentration for a half-maximal effect (EC50) of 110 nM.
As to `O=C(O)c1c(F)ccc(-c2noc(C34CCC(OCc5c(-c6c(Cl)cccc6Cl)noc5C5CC5)(CC3)CC4)n2)c1F` [Example 68, 3-(5-(4-((5-Cyclopropyl-3-(2,6-dichlorophenyl)isoxazol-4-yl)methoxy)bicyclo[2.2.2]octan-1-yl)-1,2,4-oxadiazol-3-yl)-2,6-difluorobenzoic acid], the 50% effective concentration (EC50) is 250 nM.

One may read the EC50 as the concentration giving half of the maximal effect. A low value points to higher potency in that assay.
